Results on eight molecules are retold here after patent US11141423B2, “Methods of screening compounds useful for treatment of a liver disease” (Icahn School of Medicine at Mount Sinai, priority 2010, dated 2021).

One assay relates to profibrogenic genes. In words: Profibrogenic gene expression in liver of CCl4 or vehicle treated mice. The class given is in vivo.
For another assay, the system named is DAGL. Particulars: cited from earlier work.
For assay [1], the target named is T1, CB1R-AT1R heteromer (UniProt P30556+P47746).
T1 construct: Neuro2A cells expressing endogenous CB1R and recombinant AT1R; expressed in transfected cells; host or cells: Neuro2A stably expressing AT1R (CB1R endogenous)
T1 sequence (P47746 whole entry): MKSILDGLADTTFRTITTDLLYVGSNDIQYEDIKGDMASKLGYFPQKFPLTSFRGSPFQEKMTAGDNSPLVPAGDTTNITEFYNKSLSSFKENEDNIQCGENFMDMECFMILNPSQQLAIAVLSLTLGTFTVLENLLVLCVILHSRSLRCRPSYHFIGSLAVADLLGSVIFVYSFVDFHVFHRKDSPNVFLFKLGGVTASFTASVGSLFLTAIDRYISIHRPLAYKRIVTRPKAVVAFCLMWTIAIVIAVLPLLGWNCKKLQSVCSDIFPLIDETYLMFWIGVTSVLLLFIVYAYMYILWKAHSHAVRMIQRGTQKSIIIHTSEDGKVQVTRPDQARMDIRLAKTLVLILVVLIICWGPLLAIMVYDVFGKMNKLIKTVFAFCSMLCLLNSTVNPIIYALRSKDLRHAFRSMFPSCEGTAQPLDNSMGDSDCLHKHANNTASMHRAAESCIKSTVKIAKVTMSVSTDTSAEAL
T1 sequence (P30556 whole entry): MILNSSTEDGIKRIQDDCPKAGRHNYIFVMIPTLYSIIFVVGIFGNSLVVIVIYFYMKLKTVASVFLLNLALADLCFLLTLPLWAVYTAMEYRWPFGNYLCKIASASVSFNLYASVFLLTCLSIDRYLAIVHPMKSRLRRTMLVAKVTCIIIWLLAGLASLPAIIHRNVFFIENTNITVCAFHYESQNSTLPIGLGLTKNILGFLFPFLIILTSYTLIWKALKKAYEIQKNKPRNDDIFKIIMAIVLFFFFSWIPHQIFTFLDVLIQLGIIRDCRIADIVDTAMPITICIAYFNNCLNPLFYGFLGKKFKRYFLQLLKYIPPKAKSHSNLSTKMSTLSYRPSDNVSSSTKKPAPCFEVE
In words: Ang II-mediated pERK in Neuro2A-AT1R cells. In kind it is cell-based. Here is the method:
(§1) Generation of HEK293-Transfected Cells and Neuro2A Cell Line Stably Expressing AT1R. These cell lines were generated using standard procedure of transfection and antibiotic selection of expressing cells. Screening of positive cells was carried out by immunostaining of the receptors to evaluate the homogeneity of expression in the clones.
RNAi-mediated CB1R and βarrestin-2 downregulation.
Neuro2A cells expressing endogenous CB1R and recombinant AT1R were pretreated with vehicle or THL (2 μM) for 3 hours in serum free media and stimulated with vehicle (CTL=control) or with the receptor ligand (angiotensin II) for 3 minutes. […] ERK phosphorylation was assessed by Western blot using antibodies to pERK and ERK (n=3-5). […] The cells were processed for infrared detection of pERK.

For assay [2], the target named is T2, CB1R-AT1R heteromer (Rattus norvegicus, UniProt P20272+P25095).
T2 construct: endogenous in cells; host or cells: primary hepatic stellate cells from ethanol-fed Sprague-Dawley rats (eHSCs)
T2 sequence (P20272 whole entry, one chain of several): as the sequence (P47746 whole entry) above, with D95E counted along it
In words: Ang II-mediated pERK in activated HSCs (eHSCs), Western blot. The class given is cell-based. To be noted: eHSCs from ethanol treated rats; Ang II stimulation; THL pretreatment 10 or 30 minutes; pERK normalized to total ERK. The text has this: Animals received humane care according to the criteria outlined in the Guide for Care and Use of Laboratory Animals.
Isolation of Hepatic Stellate Cells: These were isolated as described before.

Assay [3] has as its target T3, CB1R-AT1R heteromer (Homo sapiens, UniProt P21554+P30556).
T3 construct: expressed in transfected cells; host or cells: HEK293
In words: Ang II-mediated pERK in HEK293 transfected with AT1R and CB1R. The class given is cell-based. The method, then:
FIG. 3A. […] ERK phosphorylation was assessed by Western blot using antibodies to pERK and ERK. Data represent mean±SEM (n=4).
as §1

A further assay has as its target T4, AT1R (Rattus norvegicus, UniProt P25095).
T4 construct: a profibrogenic receptor, AT1R, which was also expressed in cHSCs; endogenous in cells; host or cells: primary hepatic stellate cells from control-diet Sprague-Dawley rats (cHSCs)
T4 sequence (P25095 1-359): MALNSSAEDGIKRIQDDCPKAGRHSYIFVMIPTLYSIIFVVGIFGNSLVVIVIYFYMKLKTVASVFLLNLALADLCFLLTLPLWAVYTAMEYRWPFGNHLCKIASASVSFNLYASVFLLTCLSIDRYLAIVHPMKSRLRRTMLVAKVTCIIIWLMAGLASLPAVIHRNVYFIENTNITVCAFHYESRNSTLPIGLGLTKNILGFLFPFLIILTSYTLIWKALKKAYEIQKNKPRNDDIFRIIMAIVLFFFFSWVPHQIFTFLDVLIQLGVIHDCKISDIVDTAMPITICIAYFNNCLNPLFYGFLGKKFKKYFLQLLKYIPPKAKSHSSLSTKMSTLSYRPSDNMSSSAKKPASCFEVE
Nature of the assay: Ang II-mediated pERK in control HSCs (cHSCs), Western blot. The class given is cell-based. To be noted: cHSCs from control rats; Ang II stimulation; THL pretreatment 10 or 30 minutes. The text has this: HSCs from ethanol treated rats were generated in the laboratory of Dr. Natalia Nieto: Rats (300 g female Sprague-Dawley, N=10/group) were fed the control or ethanol Lieber-DeCarli diets for 8 months (Lieber and DeCarli, 1989). Animals received humane care according to the criteria outlined in the Guide for Care and Use of Laboratory Animals. Details regarding pathology of the liver of the control and alcohol fed rats are described in (Cubero and Nieto, 2008; Urtasun et al., 2009).
Isolation of Hepatic Stellate Cells: These were isolated as described before. (Friedman, S. L. Hepatic stellate cells: protean, multifunctional, and enigmatic cells of the liver. Physiol Rev 88, 125-72 (2008); Teixeira-Clerc, F. et al. CB1 cannabinoid receptor antagonism: a new strategy for the treatment of liver fibrosis. Nat Med 12, 671-6 (2006)).
(Immunoblotting shows a protein as a band on a membrane.)

Assay [4] deals with α-SMA, TGFβ, pro-collagen α III and pro-collagen α I. In words: Ang II-mediated fibrogenic response in eHSC, real-time PCR. In kind it is cell-based, rat. To be noted: eHSCs, 4 hours, mRNA normalized to GAPDH. Here is the method:
(§2) Reverse Transcription and Real-Time PCR. Total RNA was isolated from 3×10^8 HSCs using the TRIzol method (Invitrogen, Carlsbad, Calif., USA). RNA (1.0 μg) was reverse-transcribed in 20 μl of buffer containing 50 μM oligo(dT)20, 25 mM MgCl2, 0.1 M dithiothreitol, 40 U/μl RNaseOUT, and 200 U/μl SuperScript III RT for 50 min at 50° C. The reaction was stopped by incubating the samples at 85° C. for 5 min, and 40 μl of nuclease-free water was added. Real-time PCR was performed by using the Brilliant SYBR Green QPCR Master Mix. The PCR template source was either 30 ng of first-strand cDNA or purified DNA standard. Primer sequences used to amplify the desired cDNA are detailed in Table 2. Amplification was performed with a spectrofluorometric thermal cycler (Stratagene). After an initial denaturation step at 95° C. for 10 min, amplification was performed using 40 cycles of denaturation (95° C. for 30 s), annealing (56° C. for 1 min), and extension (72° C. for 1 min). To standardize mRNA levels, we amplified GAPDH, a housekeeping gene, as an internal control. […] For analysis of gene expression, after reverse transcription, the number of copies of mRNA for the indicated transcripts were determined by real-time PCR. Data were normalized to GAPDH mRNA and are expressed as the mean±SD (n=3 in quadruplicate).

The test system is the same in assay [5]. In words: CGS21680-mediated fibrogenic response in eHSC, real-time PCR. The class given is cell-based, rat. To be noted: eHSCs, 6 hours, mRNA normalized to GAPDH. The method, then:
as §2, with “quadruplicate). […]” for “quadruplicate).”

T3 sequence (P21554 whole entry): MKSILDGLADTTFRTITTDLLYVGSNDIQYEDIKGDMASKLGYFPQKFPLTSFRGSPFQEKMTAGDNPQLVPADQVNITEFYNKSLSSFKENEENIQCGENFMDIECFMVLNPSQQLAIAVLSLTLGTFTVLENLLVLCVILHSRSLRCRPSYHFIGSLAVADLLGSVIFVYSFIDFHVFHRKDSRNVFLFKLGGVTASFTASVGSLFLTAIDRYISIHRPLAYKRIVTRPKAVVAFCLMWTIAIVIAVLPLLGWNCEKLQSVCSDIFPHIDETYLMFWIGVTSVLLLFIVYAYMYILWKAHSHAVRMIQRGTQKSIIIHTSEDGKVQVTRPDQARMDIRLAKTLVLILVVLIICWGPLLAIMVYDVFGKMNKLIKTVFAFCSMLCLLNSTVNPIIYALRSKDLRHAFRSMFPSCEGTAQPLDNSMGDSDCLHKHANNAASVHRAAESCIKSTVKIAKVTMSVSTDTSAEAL
T3 sequence (P30556 whole entry): as the sequence (P30556 whole entry) above

On to `CCNC(=O)[C@H]1O[C@@H](n2cnc3c(N)nc(NCCc4ccc(CCC(=O)O)cc4)nc32)[C@H](O)[C@@H]1O` [CGS21680], for which the “Expression of profibrogenic genes in liver” value in the assay with profibrogenic genes (CCl4 treated mice, acute i.p. injection CGS21680 2 mg/kg, 6 hours) was “further increased”; in the assay on profibrogenic genes (non-fibrotic livers from vehicle-treated mice, CGS21680 2 mg/kg i.p.) it was “did not elevate”.
On to `CCCCCCCCCCC[C@@H](C[C@@H]1OC(=O)[C@H]1CCCCCC)OC(=O)[C@H](CC(C)C)NC=O` [THL, tetrahydrolipstatin], for which, in the assay on DAGL, the “Inhibition of DAGL versus other lipases” value was “inhibit DAGL at concentrations lower than those required to inhibit other lipases”. Further, at CB1R-AT1R heteromer [1] (Neuro2A-AT1, THL 2 μM, 3 hours, serum free media, angiotensin II 3 minutes), the “ERK1/2 phosphorylation upon agonist stimulation of the associated receptor” value was “marked decrease”. Moreover, the “Effect on Ang II-mediated signaling (blocking 2-AG production)” value on CB1R-AT1R heteromer [1] (Neuro2A-AT1R) is on record as “loss”. Further, on CB1R-AT1R heteromer [2], the “Effect on Ang II-mediated ERK phosphorylation in eHSCs” value is given as “decreased”. Besides, the “Effect on Ang II-mediated signaling (pERK)” value at CB1R-AT1R heteromer [3] (HEK293 co-expressing CB1R and AT1R, 10 nM Ang II 3 minutes, SR 1 μM, THL 1 μM, 1 hour pre-treatment) was “marked decrease”. Also, the “Effect on Ang II-mediated ERK phosphorylation in cHSCs” value at AT1R is on record as “not”.
Regarding `O=C(NCCCCCCNC(=O)ON=C1CCCCC1)ON=C1CCCCC1` [RHC80267, 1,6-bis-(cyclohexyloximino-carbonylamino)-hexane], the “Inhibition of DAGL versus other lipases” value in the assay on DAGL is “inhibit DAGL at concentrations lower than those required to inhibit other lipases”.
For “Ang II: Angiotensin II, an agonist of AT1R (DRVYIHPF)”, in the assay with CB1R-AT1R heteromer [1], the “pERK levels at concentrations of Ang II superior to 10 nM” value is recorded as “decrease”; the “pERK levels on Ang II stimulation” value is “dose-dependent rapid and transient enhancement”. The “Increase in pERK on Ang II stimulation” value with CB1R-AT1R heteromer [3] is given as “greater increase”.
Consider `CCCCC/C=C\C/C=C\C/C=C\C/C=C\CCCC(=O)OC(CO)CO` [2-AG, 2-arachidonoyl glycerol], for which the “Effect on THL-induced loss of Ang II-mediated signaling” value at CB1R-AT1R heteromer [1] is “reversed”. Further, the “2-AG-mediated ERK1/2 phosphorylation” value at CB1R-AT1R heteromer [1] (THL pretreated Neuro2A-AT1, constant agonist concentration, increasing doses of 2-AG) is reported as “concentration-dependent”.
Consider `Cc1c(C(=O)NN2CCCCC2)nn(-c2ccc(Cl)cc2Cl)c1-c1ccc(Cl)cc1` [SR141716], for which the “Effect on Ang II-mediated increase in expression of profibrogenic markers” value in assay [4] was “prevents”; in assay [4] (listed as CB1R antagonist), “completely blocked”. Further, the “Effect on CGS-mediated increase in expression of profibrogenic markers” value is “completely blocked” in assay [5] (listed as CB1R antagonist) and “prevents” in assay [5] (listed as SR). Further, the “Effect on Ang II-mediated ERK phosphorylation in cHSCs” value at AT1R was “not”.
With `CCCCCCC(C)(C)c1cc(O)c2c(c1)OC(C)(C)[C@@H]1CC=C(CO)C[C@@H]21` [Hu210], at CB1R-AT1R heteromer [1], the “Effect on AT1R signaling of a non-signaling concentration of CB1R agonist” value is “potentiates” and the “Effect on THL-induced loss of Ang II-mediated signaling” value is recorded as “reversed”.
Turning to pertussis toxin, at CB1R-AT1R heteromer [1] (cells co-expressing CB1R and AT1R, PTX 15 nM, 16 hours, forskolin 1 μM, 30 min), the “Effect on AT1R signaling (Ang II pERK), G protein coupling” value is recorded as “markedly inhibited”.
